Tests used:
Assay type in all cases: in vivo
[1] = system: Cnaphalocrocis medinalis (rice leaf rollers); assay: Activity against Cnaphalocrocis medinalis (rice leaf rollers); settings: compound by itself
[2] = system: Nephotettix cincticeps (green leaf hopper); assay: Activity against Nephotettix cincticeps (green leaf hopper), % mortality; settings: for activity against Nephotettix cincticeps (green leaf hoppers), in words: compound by itself
From the text: In experiments on activity against Nephotettix spp. (rice leaf hoppers), for example, Nephotettix cincticeps (green leaf hopper), carried out on representative compounds of the first preferred embodiment, the following results (wherein ppm indicates the concentration of the compound in parts per million of the test solution applied) have been obtained, as shown in Table 7: […]

[3] = system: Nilaparvata lugens (brown planthoppers); assay: Activity against Nilaparvata lugens (brown planthoppers); settings: compound by itself

Structure (SMILES)	activity against Cnaphalocrocis medinalis (rice leaf rollers), in words [1]	activity against Nephotettix cincticeps (green leaf hoppers), in words [2]	activity against Nilaparvata lugens (brown planthoppers), in words [3]	activity against Cnaphalocrocis medinalis (rice leaf rollers), in words ([1]; listed as indoxacarb)	mortality at 6.25 ppm ([2]; Nephotettix cincticeps, Indoxacarb 6.25 ppm alone (Ethiprole 0 ppm)) [%]	mortality at 12.5 ppm ([2]; Nephotettix cincticeps, Indoxacarb 12.5 ppm alone (Ethiprole 0 ppm)) [%]	mortality at 25 ppm ([2]; Nephotettix cincticeps, Indoxacarb 25 ppm alone (Ethiprole 0 ppm)) [%]	activity against Nephotettix cincticeps (green leaf hoppers), in words ([2]; listed as indoxacarb)	activity against Nilaparvata lugens (brown planthoppers), in words ([3]; listed as indoxacarb)
CC[S+]([O-])c1c(C#N)nn(-c2c(Cl)cc(C(F)(F)F)cc2Cl)c1N (stereo not drawn) [Ethiprole, ethiprole]	not particularly active	some activity by itself	shows activity	–	–	–	–	–	–
COC(=O)N(C(=O)N1COC2(C(=O)OC)Cc3cc(Cl)ccc3C2=N1)c1ccc(OC(F)(F)F)cc1 (stereo not drawn) [Indoxacarb, indoxacarb]	very active	some activity by itself	not particularly active	active	0	16.2	38	active	not particularly effective
